Like-named read-outs stand apart in the source and are kept apart here.
Experiments:
[1] = test system: alkaline phosphatase (ALP); settings: for RFU Score (10 μM): 154-analog library, C2C12, duplicate; for Fluo. Z Score: SAR of library and proprietary analogs, AttoPhos assay, C2C12; for RFU Score Threshold ≥ 800: Ex 450/Em 580 nm, rank in brackets not taken; for Fluorescence Z Score Threshold ≥ 10: Z score on DMSO control wells
From the text: (§1) To identify small-molecule activators of osteoblast differentiation, we measured ALP activity using a fluorescent emission assay as a reporter for enzymatic digestion of ALP substrate in lysates derived from C2C12 myoblasts. […] Therefore, before screening, the assay was calibrated using recombinant human BMP4 protein as a positive control. Compounds were robotically deposited onto 384-well plates and then overlaid by C2C12 cells for a 4-day culture period, followed by lysis and fluorescent substrate assays (FIG. 1A; Table 1). To ensure uniformity, C2C12 cells were maintained in normal culture medium containing 10% fetal bovine serum, and lysis and substrate addition achieved using a microplate multidrop device. The primary screen (Table 2) encompassed greater than 47,000 small molecules tested at a final concentration of 10 μM.
(§2) For the primary screen, library compounds were distributed onto 384-well microplates (Greiner Bio-One 781091) at a final concentration of 10 μM in culture medium using a Perkin Elmer Janus automated workstation and WinPrep Version 4.8.3.315. Positive (rhBMP4, 1 ng/ml, R&D Systems) and negative controls (DMSO, 0.2%) were manually added to each plate by multichannel pipet. C2C12 cells were seeded onto compounds and controls at a density of 2000/well using a Thermo Multidrop Combi reagent dispenser and cultured for 4 days at 37° C., 5% CO2. Culture medium was aspirated using a BioTek EL406 plate washer and cells were lysed in RIPA buffer (Millipore 20-188) at ambient temperature for 10 minutes. 10 μl fluorescent alkaline phosphatase substrate (AttoPhos, Promega S1000) was added to lysates and incubated an additional 10 minutes before measuring the fluorescence (Excitation 450 nm/Emission 580 nm) on a BioTek Synergy Neo2 stacking microplate reader. Plates were processed and relative fluorescence raw values measured in stacks of 10-20. The data were processed using Collaborative Drug Discovery web-based software (CDD Vault) to determine Z score calculated on DMSO control wells and percent activation normalized against positive and negative controls (NPA). Cherry-picked hit candidates were re-tested in concentration response experiments, from which 4 candidates were chosen and purchased for further testing from either ChemBridge or Enamine, based on availability.
(§3) We also purchased a library of 154 structural chemical analogs assembled by ChemBridge Corp. from available screening library compounds.

[2] = test system: alkaline phosphatase (ALP); experiment: cells; settings: Mus musculus; for activation at 10 µM: C2C12, 96 h
From the text: as §1, §2, §3

[3] = primary screen, 10 μM, C2C12, 4 days
[4] = read-out: NPA Score Threshold ≥ 5.0 (normalized percent activation)

Row | SMILES | RFU Score (10 μM) ([1]; 10 μM) | activation at 10 µM [2] | further results
1 | Cc1cc(C)c2[nH]c(=O)c(CN3CCCC(N4CCCC4=O)C3)cc2c1 (centres unmarked) [RU-0424458] | 306 | 0.87% | 
2 | O=C(Nc1ccc(O)cc1)c1cc2cc(Cl)ccc2[nH]c1=O [BT351] |  |  | Fluo. Z Score [1]: 1.48 ± 1.26; EC50 ([2]; C2C12): 20.9 µM
3 | O=C(c1[nH]cnc1-c1ccccc1)N1CCc2[nH]nc(-c3ccccc3)c2C1 [RU-0424455] | 347 | 2.3% | 
4 | Cc1c(-c2[nH]cnc2-c2ccccc2)c2ccccc2n1CC(N)=O [RU-0424547] | 518 | 8.34% | 
5 | Cc1cc(C)c2[nH]c(=O)c(CN3[C@@H]4CC[C@H]3C[C@@H](O)C4)cc2c1 [RU-0424495] | 486 | 7.21% | 
6 | Cc1cc(C)c2[nH]c(=O)c(CN(Cc3nccn3C)C3CC3)cc2c1 [RU-0424451] | 305 | 0.82% | 
7 | Cc1cc(C)c2[nH]c(=O)c(-c3nccn3[C@@H]3CS(=O)(=O)C[C@H]3O)cc2c1 [RU-0424461] | 399 | 4.15% | 
8 | CC(C)(O)C#Cc1ccc(-c2[nH]cnc2-c2ccccc2)cc1 [RU-0424480] | 575 | 10.4% | 
9 | CC(=O)Nc1ccc2nc(-c3[nH]cnc3-c3ccccc3)ccc2c1 [RU-0260066] | 456 | 6.14% | 
10 | Cc1nc2cc(C(=O)N3CCNC(=O)C3)ccc2s1 [RU-0243566] |  |  | RFU Score Threshold ≥ 800 [1, 3]: Below Threshold; Fluorescence Z Score Threshold ≥ 10 [1, 3]: Below Threshold; activation at 10 µM [2, 4]: 5.55%
11 | CCCC(C)c1nnc(NC(=O)c2ccccc2-n2cncn2)s1 (centres unmarked) [RU-0242581] |  |  | RFU Score Threshold ≥ 800 [1, 3]: 849 (24); Fluorescence Z Score Threshold ≥ 10 [1, 3]: Below Threshold; activation at 10 µM [2, 4]: 5.51%
12 | CN1CCC(Cc2noc(CCC(=O)c3ccccc3)n2)CC1 [RU-0262489] |  |  | RFU Score Threshold ≥ 800 [1, 3]: Below Threshold; Fluorescence Z Score Threshold ≥ 10 [1, 3]: Below Threshold; activation at 10 µM [2, 4]: 5.43%
13 | Cc1cc(C)c2[nH]c(=O)c(CN3CCCC(N(C)C)CC3)cc2c1 (centres unmarked) [RU-0424506] | 364 | 2.9% | 
14 | O=C(c1[nH]cnc1-c1ccccc1)N1CCC(O)(CO)CC1 [RU-0424460] | 429 | 5.19% | 
15 | Cc1cc(C)c2[nH]c(=O)c(CN(C)C(C)C(=O)N(C)C)cc2c1 (centres unmarked) [RU-0424508] | 504 | 7.85% | 
16 | CCCN(Cc1nccn1C)C(=O)c1[nH]cnc1-c1ccccc1 [RU-0424464] | 330 | 1.72% | 
17 | COc1cccc(-c2[nH]cnc2-c2ccccc2)c1OCCCN(C)C [RU-0424545] | 433 | 5.33% | 
18 | O=C(c1[nH]cnc1-c1ccccc1)N1CCOC(C(F)(F)F)C1 (centres unmarked) [RU-0424512] | 455 | 6.12% | 
19 | COc1ncccc1-n1ccnc1-c1cc2cc(C)cc(C)c2[nH]c1=O [RU-0424468] | 508 | 7.97% | 
20 | c1ccc(-c2nc[nH]c2-c2cnc(N3CCOCC3)s2)cc1 [RU-0424540] | 603 | 11.4% | 

Row | SMILES | RFU Score (10 μM) ([1]; 10 μM) | activation at 10 µM [2] | further results
21 | Cc1cc(C)c2[nH]c(=O)c(-c3nccn3CCc3cn[nH]c3)cc2c1 [RU-0253216] | 341 | 2.09% | 
22 | COc1ccc(-c2n[nH]cc2-c2[nH]cnc2-c2ccccc2)cc1 [RU-0237450] | 466 | 6.49% | 
23 | Cc1cc(C)c2[nH]c(=O)c(CN3C[C@H]4C(=O)NC[C@@]4(C(=O)O)C3)cc2c1 [RU-0424535] | 518 | 8.32% | 
24 | C=CCN(Cc1ccc(F)cc1)C(=O)c1c[nH]c2c(C)cccc2c1=O [RU-0268068] |  |  | RFU Score Threshold ≥ 800 [1, 3]: Below Threshold; Fluorescence Z Score Threshold ≥ 10 [1, 3]: Below Threshold; activation at 10 µM [2, 4]: 5.81%
25 | Cc1cc(C)c2[nH]c(=O)c(CN(C)Cc3nc(-c4cccnc4)no3)cc2c1 [RU-0424447] | 297 | 0.54% | 
26 | CNC(=O)CC1C(=O)NCCN1Cc1cc2cc(C)cc(C)c2[nH]c1=O (centres unmarked) [RU-0424520] | 532 | 8.81% | 
27 | COc1cccc(-c2[nH]cnc2-c2ccccc2)c1OCCCn1ccnc1 [RU-0424482] | 567 | 10.1% | 
28 | CN(C)CC1(O)CCCN(S(=O)(=O)c2ccc(-c3ccccc3)cc2)CC1 (centres unmarked) [RU-0259574] |  |  | RFU Score Threshold ≥ 800 [1, 3]: 903 (16); Fluorescence Z Score Threshold ≥ 10 [1, 3]: Below Threshold; activation at 10 µM [2, 4]: 9.87%
29 | Cc1cc(C)c2[nH]c(=O)c(CN3CCCC(c4ncc[nH]4)C3)cc2c1 (centres unmarked) [RU-0424536] | 516 | 8.27% | 
30 | Cc1cc(C)n(CC(C)Nc2nc(-c3ccncc3)nc3c2CNC3)n1 (centres unmarked) [RU-0236897] |  |  | RFU Score Threshold ≥ 800 [1, 3]: Below Threshold; Fluorescence Z Score Threshold ≥ 10 [1, 3]: Below Threshold; activation at 10 µM [2, 4]: 5.32%
31 | CCN1CCN(CCOc2ccccc2-c2[nH]cnc2-c2ccccc2)CC1 [RU-0253941] | 547 | 9.34% | 
32 | O=C(c1[nH]cnc1-c1ccccc1)N(Cc1cocn1)Cc1cocn1 [RU-0424524] | 549 | 9.42% | 
33 | O=S(=O)(Nc1ncc(-c2[nH]cnc2-c2ccccc2)cn1)c1ccccc1 [RU-0424538] | 533 | 8.87% | 
34 | Cc1cc(C)c2[nH]c(=O)c(CN3CCCn4cncc4C3)cc2c1 [RU-0424546] | 460 | 6.3% | 
35 | Cc1cc(C)c2[nH]c(=O)c(CN3CCOC4(CNCCOC4)C3)cc2c1 (centres unmarked) [RU-0267267] | 557 | 9.71% | 
36 | COc1cc(OC)c(-c2[nH]cnc2-c2ccccc2)c(OC)c1 [RU-0239439] | 472 | 6.72% | 
37 | O=C(c1[nH]cnc1-c1ccccc1)N1CCOC(c2ccc(F)cc2)C1 (centres unmarked) [RU-0424531] | 478 | 6.93% | 
38 | O=C(NC1CCN(c2ccc(F)cc2)CC1)N(CC1CCOC1)C1CC1 (centres unmarked) [RU-0219256] |  |  | RFU Score Threshold ≥ 800 [1, 3]: Below Threshold; Fluorescence Z Score Threshold ≥ 10 [1, 3]: Below Threshold; activation at 10 µM [2, 4]: 5.69%
39 | Cc1cc(C)c2[nH]c(=O)c(CN3CCC(c4nncn4C)CC3)cc2c1 [RU-0424449] | 284 | 0.1% | 
40 | Cc1cc(C)c2[nH]c(=O)c(-c3nccn3Cc3ccco3)cc2c1 [RU-0424518] | 484 | 7.14% | 

Row | SMILES | RFU Score (10 μM) ([1]; 10 μM) | activation at 10 µM [2] | further results
41 | O=C(NC1CC1)C1CCCN(C2CCN(c3ccc(C(F)(F)F)cn3)CC2)C1 (centres unmarked) [RU-0221613] |  |  | RFU Score Threshold ≥ 800 [1, 3]: Below Threshold; Fluorescence Z Score Threshold ≥ 10 [1, 3]: Below Threshold; activation at 10 µM [2, 4]: 5%
42 | O=C(c1[nH]cnc1-c1ccccc1)N1CCc2onc(-c3cccc(F)c3)c2C1 [RU-0424505] | 326 | 1.56% | 
43 | CN(CC1COCCO1)C(=O)c1ccc(-c2[nH]cnc2-c2ccccc2)cc1 (centres unmarked) [RU-0424529] | 504 | 7.85% | 
44 | Cc1cc(C)c2[nH]c(=O)c(CN3C[C@H]4CC[C@@H](C3)N(C)C4=O)cc2c1 [RU-0424476] | 520 | 8.41% | 
45 | c1ccc(-c2nc[nH]c2-c2ccccc2OCCCN2CCOCC2)cc1 [RU-0248967] | 512 | 7.58% | 
46 | CO[C@@]12CC[C@H](O)C[C@@H]1N(C(=O)c1[nH]cnc1-c1ccccc1)CC2 [RU-0424513] | 435 | 5.42% | 
47 | O=C(c1[nH]cnc1-c1ccccc1)N1CCCC(c2ccncn2)C1 (centres unmarked) [RU-0424516] | 392 | 3.89% | 
48 | c1ccc2c(N3CCN(Cc4cc5n(n4)CCCNC5)CC3)nsc2c1 [RU-0261349] |  |  | RFU Score Threshold ≥ 800 [1, 3]: 884 (18); Fluorescence Z Score Threshold ≥ 10 [1, 3]: 11.32 (22); activation at 10 µM [2, 4]: 5.04%
49 | CCOC(=O)N1CCC(Nc2ncnc3ccsc23)CC1 [RU-0269711, ethyl 4-(thieno[2,3-e]pyrimidin-4-ylamino)piperidine-1-carboxylate] |  |  | RFU Score Threshold ≥ 800 [1, 3]: 1070 (7); Fluorescence Z Score Threshold ≥ 10 [1, 3]: 14.73 (15); NPA Score Threshold ≥ 5.0 (normalized percent activation) ([1]; primary screen, 10 μM, C2C12, 4 days, normalized against rhBMP4 positive and DMSO negative controls): Below Threshold; EC50 ([2]; C2C12, read-out: Measured EC50): 28.3 µM
50 | Cc1cc(C)c2[nH]c(=O)c(-c3c(-c4ccccc4)ncn3CCCO)cc2c1 [RU-0220396] |  |  | Fluo. Z Score [1]: −0.3 ± 0.20; EC50 ([2]; C2C12): 2.63 µM
51 | O=C(NCc1nc(-c2cnccn2)n[nH]1)c1[nH]cnc1-c1ccccc1 [RU-0424519] | 561 | 9.84% | 
52 | CCNC(=O)[C@@H]1CCCN1Cc1cc2cc(C)cc(C)c2[nH]c1=O [RU-0424473] | 470 | 6.63% | 
53 | Nc1nnc(C2CCN(C(=O)c3[nH]cnc3-c3ccccc3)CC2)[nH]1 [RU-0424511] | 467 | 6.54% | 
54 | Cc1ccc2[nH]c(C(=O)O)c(-c3[nH]cnc3-c3ccccc3)c2c1 [RU-0424445] | 364 | 4.67% | 
55 | O=C(NCCc1nnc2n1CCNCC2)c1[nH]cnc1-c1ccccc1 [RU-0424552] | 485 | 7.18% | 
56 | Cc1cc(C)c2[nH]c(=O)c(CN(C)CCCn3cccn3)cc2c1 [RU-0424509] | 486 | 7.19% | 
57 | Cc1cc(C)c2[nH]c(=O)c(CN3CCCC(CS(C)(=O)=O)C3)cc2c1 (centres unmarked) [RU-0424457] | 285 | 0.13% | 
58 | N#Cc1ccccc1-c1ccc(-c2[nH]cnc2-c2ccccc2)o1 [RU-0424504] | 309 | 0.96% | 
59 | CCC(c1cccnc1)N(C)Cc1cc2cc(C)cc(C)c2[nH]c1=O (centres unmarked) [RU-0261450] | 538 | 9.03% | 
60 | O=C(c1[nH]cnc1-c1ccccc1)N1CC[C@H](CO)[C@H](O)C1 [RU-0227868] | 505 | 7.88% | 

— patent US11478466B2, “Small molecule promoting osteoblast differentiation” (Cornell University, priority 2019, dated 2022)
